Data: ChEMBL document CHEMBL1201862, “PubChem BioAssay data set” (2004)
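How tested: cells in 96-well plates exposed to compound for 48 hours at five concentrations. GI50 = concentration required for 50% inhibition of growth.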 Active and inactive are the calls of the source. Rule as the data show it: active = GI50 up to about 1.1 µM and inactive = higher.

Assays:
Experiment in all cases: inhibition of tumour cell growth, NCI panel, 48 h
SF-268 = system: SF-268
UO-31 = system: UO-31
NCI-H460 = system: NCI-H460
RXF 393 = system: RXF 393
HCT-15 = system: HCT-15
NCI-H226 = system: NCI-H226
SNB-19 = system: SNB-19
MDA-MB-435 = system: MDA-MB-435
SR = system: SR
SN12C = system: SN12C
HCT-116 = system: HCT-116
NCI-H23 = system: NCI-H23
U-251 = system: U-251
K562 = system: K562
PC-3 = system: PC-3
HCC 2998 = system: HCC 2998
IGROV-1 = system: IGROV-1
Hs-578T = system: Hs-578T
NCI-H522 = system: NCI-H522

SMILES	GI50 (SF-268)	GI50 (UO-31)	GI50 (NCI-H460)	GI50 (RXF 393)	GI50 (HCT-15) [µM]	GI50 (NCI-H226)	GI50 (SNB-19)	GI50 (MDA-MB-435)	GI50 (SR)	GI50 (SN12C)	GI50 (HCT-116)	GI50 (NCI-H23)	GI50 (U-251)	GI50 (K562)	GI50 (PC-3)	GI50 (HCC 2998)	GI50 (IGROV-1)	GI50 (Hs-578T)	GI50 (NCI-H522)
C=C1C(=O)OC2CCN3CC=C(COC(=O)C(C)(O)C4(CO4)C1C)C23 (stereo not given)	> 100 µM (inactive)	> 100 µM (inactive)	> 100 µM (inactive)	> 100 µM (inactive)	> 100	> 100 µM (inactive)	> 100 µM (inactive)	> 100 µM (inactive)	> 100 µM (inactive)	> 100 µM (inactive)	> 100 µM (inactive)	> 100 µM (inactive)	> 100 µM (inactive)	> 100 µM (inactive)	> 100 µM (inactive)	> 100 µM (inactive)	> 100 µM (inactive)	> 100 µM (inactive)	> 100 µM (inactive)
CC(NC(=O)/C(=C/c1ccccc1)NC(=O)c1ccccc1)C(=O)O (stereo not given)	> 100 µM (inactive)	91.4 µM (inactive)	> 100 µM (inactive)	> 100 µM (inactive)	87.9	26.1 µM (inactive)	77.1 µM (inactive)	38.8 µM (inactive)	37.6 µM (inactive)	92.3 µM (inactive)	91.2 µM (inactive)	47.4 µM (inactive)	34 µM (inactive)	> 100 µM (inactive)	> 100 µM (inactive)	> 100 µM (inactive)	21.3 µM (inactive)	88.3 µM (inactive)	> 100 µM (inactive)
COc1ccc(/C=C2\CN(C)C/C(=C\c3ccc(OC)cc3)C2=O)cc1	> 100 µM (inactive)	> 100 µM (inactive)	> 100 µM (inactive)	> 100 µM (inactive)	> 100	> 100 µM (inactive)	> 100 µM (inactive)	> 100 µM (inactive)	> 100 µM (inactive)	> 100 µM (inactive)	> 100 µM (inactive)	> 100 µM (inactive)	> 100 µM (inactive)	> 100 µM (inactive)	> 100 µM (inactive)	> 100 µM (inactive)	52.2 µM (inactive)	> 100 µM (inactive)	> 100 µM (inactive)
Cc1c(-c2ccccc2)oc(=O)c2ccccc12	17.4 µM (inactive)	19 µM (inactive)	26.4 µM (inactive)	16.5 µM (inactive)	19.8	17.5 µM (inactive)	30.7 µM (inactive)	15.6 µM (inactive)	10.3 µM (inactive)	17.7 µM (inactive)	24.6 µM (inactive)	24.8 µM (inactive)	17.9 µM (inactive)	30.2 µM (inactive)	24.4 µM (inactive)	18.2 µM (inactive)	20.2 µM (inactive)	17.1 µM (inactive)	13.8 µM (inactive)
CC(C)(N)CO[C@H]1C[C@H]2CC[C@@]1(C)C2(C)C	44.9 µM (inactive)	16.5 µM (inactive)	17.9 µM (inactive)	12.9 µM (inactive)	19.8	24.7 µM (inactive)	24.8 µM (inactive)	16.3 µM (inactive)	11.9 µM (inactive)	39.9 µM (inactive)	15.9 µM (inactive)	23.7 µM (inactive)	18.1 µM (inactive)	18.2 µM (inactive)	27.1 µM (inactive)	2.11 µM (inactive)	39.2 µM (inactive)	27.5 µM (inactive)	18.7 µM (inactive)
O=C(O)[C@H]1[C@@H](C2CCCCC2)O[C@@H](C2CCCCC2)O[C@H]1C(F)(F)F	20.2 µM (inactive)	26.2 µM (inactive)	19.3 µM (inactive)	22.9 µM (inactive)	30.1	21.1 µM (inactive)	27.5 µM (inactive)	19.4 µM (inactive)	20.7 µM (inactive)	17.1 µM (inactive)	28.8 µM (inactive)	21.3 µM (inactive)	18.8 µM (inactive)	33.1 µM (inactive)	17.6 µM (inactive)	20 µM (inactive)	16.6 µM (inactive)	23.1 µM (inactive)	52.2 µM (inactive)
CCOC(=O)C#Cc1cccc(C#CC(=O)OCC)c1	6.52 µM (inactive)	4.51 µM (inactive)	11.1 µM (inactive)	5.31 µM (inactive)	3.31	6.58 µM (inactive)	5.71 µM (inactive)	4.59 µM (inactive)	0.506 µM (active)	3.03 µM (inactive)	2.37 µM (inactive)	3.66 µM (inactive)	4.71 µM (inactive)	1.91 µM (inactive)	6.21 µM (inactive)	0.624 µM (active)	18.2 µM (inactive)	9.55 µM (inactive)	15.8 µM (inactive)
COC1=CC(=O)C2=C(C1=O)[C@H]1CC[C@]3(C)C(=O)CC[C@H]3[C@@H]1CC2	21.5 µM (inactive)	22.2 µM (inactive)	> 100 µM (inactive)	28.1 µM (inactive)	27.2	22.1 µM (inactive)	> 100 µM (inactive)	19.8 µM (inactive)	34.9 µM (inactive)	21.4 µM (inactive)	18.5 µM (inactive)	27.1 µM (inactive)	32.2 µM (inactive)	33.6 µM (inactive)	28.5 µM (inactive)	54.1 µM (inactive)	21.4 µM (inactive)	28.5 µM (inactive)	24.2 µM (inactive)
CO[C@H]1O[C@@H]2CO[C@@H](c3ccccc3)O[C@H]2[C@@H]2CC=CCC[C@]12O	21.8 µM (inactive)	48.2 µM (inactive)	35.7 µM (inactive)	62.1 µM (inactive)	39.6	> 100 µM (inactive)	> 100 µM (inactive)	45.7 µM (inactive)	30.8 µM (inactive)	61.8 µM (inactive)	30.1 µM (inactive)	36.6 µM (inactive)	60.3 µM (inactive)	33.9 µM (inactive)	40.9 µM (inactive)	18.5 µM (inactive)	59.6 µM (inactive)	0.052 µM (active)	16.5 µM (inactive)
CCOC(=O)C(=O)/C(=C/NC(=S)c1ccncc1)C(=O)OCC	> 100 µM (inactive)	5.71 µM (inactive)	> 100 µM (inactive)	> 100 µM (inactive)	> 100	> 100 µM (inactive)	9.68 µM (inactive)	> 100 µM (inactive)	> 100 µM (inactive)	> 100 µM (inactive)	> 100 µM (inactive)	> 100 µM (inactive)	> 100 µM (inactive)	> 100 µM (inactive)	> 100 µM (inactive)	> 100 µM (inactive)	> 100 µM (inactive)	> 100 µM (inactive)	> 100 µM (inactive)
COc1ccccc1C(=O)NO	> 100 µM (inactive)	> 100 µM (inactive)	62.7 µM (inactive)	> 100 µM (inactive)	> 100	> 100 µM (inactive)	> 100 µM (inactive)	> 100 µM (inactive)	> 100 µM (inactive)	> 100 µM (inactive)	> 100 µM (inactive)	> 100 µM (inactive)	> 100 µM (inactive)	> 100 µM (inactive)	> 100 µM (inactive)	> 100 µM (inactive)	> 100 µM (inactive)	> 100 µM (inactive)	49.1 µM (inactive)
COc1ccc(SC(C)(SC)c2ccccn2)c(OC)n1 (stereo not given)	> 100 µM (inactive)	> 100 µM (inactive)	73.1 µM (inactive)	> 100 µM (inactive)	54.7	42.5 µM (inactive)	> 100 µM (inactive)	> 100 µM (inactive)	47.2 µM (inactive)	> 100 µM (inactive)	48.3 µM (inactive)	35.4 µM (inactive)	> 100 µM (inactive)	51.4 µM (inactive)	76.2 µM (inactive)	> 100 µM (inactive)	> 100 µM (inactive)	91.2 µM (inactive)	36.3 µM (inactive)
N=C(N)N/N=C/c1c(-c2ccc([N+](=O)[O-])cc2)nc2n1CCS2	9.55 µM (inactive)	15.6 µM (inactive)	15.3 µM (inactive)	8.51 µM (inactive)	18.5	20.3 µM (inactive)	3.54 µM (inactive)	14.8 µM (inactive)	2.25 µM (inactive)	7 µM (inactive)	7.87 µM (inactive)	14.3 µM (inactive)	2.3 µM (inactive)	3.86 µM (inactive)	13.2 µM (inactive)	6.32 µM (inactive)	17.4 µM (inactive)	16.7 µM (inactive)	10.6 µM (inactive)
COC(=O)CCC(=O)NC1=C(Nc2ccc(OC)cc2)C(=O)c2ccccc2C1=O	18.9 µM (inactive)	15.4 µM (inactive)	7.21 µM (inactive)	13.4 µM (inactive)	7.18	17.7 µM (inactive)	17.8 µM (inactive)	2 µM (inactive)	12.9 µM (inactive)	13.1 µM (inactive)	6.58 µM (inactive)	6.34 µM (inactive)	16.5 µM (inactive)	23.9 µM (inactive)	9.66 µM (inactive)	20.1 µM (inactive)	11.9 µM (inactive)	20.8 µM (inactive)	10.8 µM (inactive)
NC(=O)NC(CC(=O)O)C(=O)O (stereo not given)	> 100 µM (inactive)	> 100 µM (inactive)	> 100 µM (inactive)	> 100 µM (inactive)	> 100	> 100 µM (inactive)	> 100 µM (inactive)	> 100 µM (inactive)	> 100 µM (inactive)	> 100 µM (inactive)	> 100 µM (inactive)	> 100 µM (inactive)	> 100 µM (inactive)	> 100 µM (inactive)	> 100 µM (inactive)	> 100 µM (inactive)	> 100 µM (inactive)	> 100 µM (inactive)	> 100 µM (inactive)
